Measured values reported in patent publication US11396517B1, “Exo-aza spiro inhibitors of menin-MLL interaction” (Janssen Pharmaceutica NV, priority 2017, dated 2022).

Target: T1, menin (Homo sapiens, UniProt O00255, T541A)
T1 construct: Menin (a.a. 1-610-6×his tag)
T1 sequence (O00255 with tags, fused parts or gaps T541A): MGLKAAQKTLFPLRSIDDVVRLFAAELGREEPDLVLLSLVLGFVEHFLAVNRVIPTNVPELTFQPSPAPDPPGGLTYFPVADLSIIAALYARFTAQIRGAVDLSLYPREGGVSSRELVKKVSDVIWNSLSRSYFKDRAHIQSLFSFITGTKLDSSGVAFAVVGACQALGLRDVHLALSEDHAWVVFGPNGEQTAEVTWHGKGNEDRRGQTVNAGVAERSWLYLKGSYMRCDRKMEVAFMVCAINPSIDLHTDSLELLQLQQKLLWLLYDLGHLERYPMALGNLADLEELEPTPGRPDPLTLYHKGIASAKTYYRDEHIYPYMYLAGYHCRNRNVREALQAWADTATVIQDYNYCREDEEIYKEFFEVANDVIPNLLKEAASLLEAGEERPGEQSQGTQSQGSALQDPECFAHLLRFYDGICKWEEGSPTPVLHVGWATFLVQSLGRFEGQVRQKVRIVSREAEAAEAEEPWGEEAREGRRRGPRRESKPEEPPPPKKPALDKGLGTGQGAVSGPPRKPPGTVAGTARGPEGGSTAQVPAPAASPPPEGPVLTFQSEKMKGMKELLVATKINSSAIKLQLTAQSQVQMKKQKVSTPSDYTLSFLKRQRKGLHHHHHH
Experiment: Menin/MLL homogenous time-resolved fluorescence (HTRF) assay
Type: binding
Settings: location 2; read-out: (2) location 2 Menin HTRF assay (IC50 (nM))
Method: 2) Menin/MLL Homogenous Time-Resolved Fluorescence (HTRF) Assay
To an untreated, white 384-well microtiter plate was added 40 nL 200× test compound in DMSO and 4 μL 2× terbium chelate-labeled menin (vide infra for preparation) in assay buffer (40 mM Tris HCl, pH 7.5, 50 mM NaCl, 1 mM DTT and 0.05% Pluronic F-127). After incubation of test compound and terbium chelate-labeled menin for 5 min at ambient temperature, 4 μL 2× FITC-MBM1 peptide (FITC-β-alanine-[…]-NH2 (SEQ ID NO: 23)) in assay buffer was added, the microtiter plate centrifuged at 1000 rpm for 1 min and the assay mixtures incubated for 15 min at ambient temperature. The relative amount of menin.FITC-MBM1 complex present in an assay mixture is determined by measuring the homogenous time-resolved fluorescence (HTRF) of the terbium/FITC donor/acceptor fluorphore pair using a BMG Pherastar plate reader (ex. 337 nm/terbium em. 490 nm/FITC em. 520 nm) at ambient temperature. The degree of fluorescence resonance energy transfer (the HTRF value) is expressed as the ratio of the fluorescence emission intensities of the FITC and terbium fluorophores (Fern 520 nm/Fem 490 nm). The final concentrations of reagents in the binding assay are […] terbium chelate-labeled menin (location 2), 75 nM FITC-MBM1 peptide and 0.5% DMSO in assay buffer. Dose-response titrations of test compounds are conducted using an 11 point, three-fold serial dilution scheme, starting typically at 25 μM (location 1) or starting typically at 10 μM (location 2).
Compound potencies were determined by first calculating % inhibition at each compound concentration according to equation 1: % inhibition=((HC−LC)−(HTRF^compound−LC))/(HC−LC))*100 (Eqn 1)
Where LC and HC are the HTRF values of the assay in the presence or absence of a saturating concentration of a compound that competes with FITC-MBM1 for binding to menin, and HTRF^compound is the measured HTRF value in the presence of the test compound. FTC and LC HTRF values represent an average of at least 16 replicates per plate.
Where Bottom and Top are the lower and upper asymptotes of the dose-response curve, respectively, IC50 is the concentration of compound that yields 50% inhibition of signal and h is the Hill coefficient.
Preparation of Terbium cryptate labeling of Menin: Menin (a.a. 1-610-6×his tag (“6×his” disclosed as SEQ ID NO: 3)) was labeled with terbium cryptate as follows. 2 mg of Menin was buffer exchanged into 1× phosphate buffered saline. 16 uM Menin was incubated with 4-fold molar excess NHS-terbium cryptate (Cisbio Bioassays, Bedford, Mass.) for 2 hours at room temperature. The labeled protein was purified away from free label by running the reaction over a Superdex 200 Increase 10/300 GL column at 0.75 ml/min. Peak fractions were collected, aliquoted and frozen at −80° C.

Structure (SMILES) | IC50
FC(F)(F)Cc1cc2c(N3CCC4(CCC(Nc5ccccc5)C4)C3)ncnc2s1 (single isomer, unassigned) [Compound 34] | 338 nM
O=C(NC1CC2(CCN(c3ncnc4sc(CC(F)(F)F)cc34)C2)C1)c1ccccc1 (single isomer, unassigned) [Compound 37] | 8340 nM
CNC(=O)c1ccc(NC2CC3(CCN(c4ncnc5sc(CC(F)(F)F)cc45)C3)C2)nc1 (single isomer, unassigned) [Compound 71] | 433 nM
CNC(=O)c1ccc(NC2CCC3(C2)CN(c2ncnc4sc(CC(F)(F)F)cc24)C3)cc1 (single isomer, unassigned) [Compound 97] | 213 nM
O=C1CN(C(=O)c2ccc(NC3CC4(CCN(c5ncnc6sc(CC(F)(F)F)cc56)C4)C3)cc2)CCN1 (single isomer, unassigned) [Compound 105] | 3040 nM
Cc1nc(N2CC3(CC[C@H](NCc4cccc(-c5cc[nH]n5)c4)C3)C2)c2cc(CC(F)(F)F)sc2n1 (single isomer, unassigned) [Compound 118] | 256 nM
FC(F)(F)Cc1cc2c(N3CCC4(CC(Nc5ccccc5)C4)C3)ncnc2s1 (single isomer, unassigned) [Compound 150] | 370 nM
FC(F)(F)Cc1cc2c(N3CCC4(CC(Nc5cccnc5)C4)C3)ncnc2s1 (single isomer, unassigned) [Compound 152] | 288 nM
N#CC1(c2ccc(NC3CC4(CCN(c5ncnc6sc(CC(F)(F)F)cc56)C4)C3)cc2)CC1 (single isomer, unassigned) [Compound 171] | 265 nM
CS(=O)(=O)N1CCN(C(=O)c2ccc(NC3CC4(CCN(c5ncnc6sc(CC(F)(F)F)cc56)C4)C3)cc2)CC1 (single isomer, unassigned) [Compound 179] | 2900 nM
COC1CCN(C(=O)c2ccc(NC3CC4(CCN(c5ncnc6sc(CC(F)(F)F)cc56)C4)C3)cc2)CC1 (single isomer, unassigned) [Compound 184] | 3430 nM
O=C(c1ccc(NC2CC3(CCN(c4ncnc5sc(CC(F)(F)F)cc45)C3)C2)cc1)N1CCNCC1 (single isomer, unassigned) [Compound 188] | 200 nM
CNC(=O)c1ccc(NC2CC3(CCN(c4ncnc5sc(CC(F)(F)F)cc45)C3)C2)cc1C1CCN(C)CC1 (single isomer, unassigned) [Compound 231] | 208 nM
CNC(=O)c1c(F)cc(NC2CC3(CCN(c4ncnc5sc(CC(F)(F)F)cc45)C3)C2)cc1F (single isomer, unassigned) [Compound 244] | 516 nM
O=C(c1cnc(NC2CC3(CCN(c4ncnc5sc(CC(F)(F)F)cc45)C3)C2)nc1)N1CCOCC1 (single isomer, unassigned) [Compound 259] | > 10000 nM
Cc1nc(N2CCC3(CC(NCc4ccccc4)C3)C2)c2cc(CC(F)(F)F)sc2n1 (single isomer, unassigned) [Compound 261] | 529 nM
COc1nc(N2CCC3(CC(Nc4ccccc4)C3)C2)c2cc(CC(F)(F)F)sc2n1 (single isomer, unassigned) [Compound 266] | 1020 nM
CNc1nc(N2CCC3(CC(Nc4ccccc4)C3)C2)c2cc(CC(F)(F)F)sc2n1 (single isomer, unassigned) [Compound 268] | 943 nM
CNS(=O)(=O)c1ccc(N[C@@H]2CCC3(C2)CN(c2ncnc4sc(CC(F)(F)F)cc24)C3)cc1 (single isomer, unassigned) [Compound 290] | 231 nM
FC(F)(F)Cc1cc2c(N3CC4(CC[C@@H](Nc5ccc(-c6cn[nH]c6)cc5)C4)C3)ncnc2s1 (single isomer, unassigned) [Compound 303] | 521 nM
FC(F)(F)Cc1cc2c(N3CCC4(CC(Nc5ccc(-c6cn[nH]c6)cc5)C4)C3)ncnc2s1 (single isomer, unassigned) [Compound 328] | 206 nM

Compounds with a lower IC50, results first:

IC50 | Structure (SMILES)
166 nM | Cn1c(=O)[nH]c2cc(NC3CC4(CCN(c5ncnc6sc(CC(F)(F)F)cc56)C4)C3)ccc21 (single isomer, unassigned) [Compound 91]
158 nM | CC(C)(N[C@@H]1CCC2(C1)CN(c1ncnc3sc(CC(F)(F)F)cc13)C2)c1ccccc1 (single isomer, unassigned) [Compound 280]
146 nM | O=c1[nH]c2ccc(N[C@@H]3CCC4(C3)CN(c3ncnc5sc(CC(F)(F)F)cc35)C4)cc2o1 (single isomer, unassigned) [Compound 296]
136 nM | FC(F)(F)Cc1cc2c(N3CCC4(CC(Nc5ccc6cc[nH]c6c5)C4)C3)ncnc2s1 (single isomer, unassigned) [Compound 312]
133 nM | CNC(=O)c1ccc(NC2CC3(CCN(c4nc(NC)nc5sc(CC(F)(F)F)cc45)C3)C2)cc1 (single isomer, unassigned) [Compound 65]
131 nM | O=c1[nH]c2ccc(N[C@H]3CCC4(C3)CN(c3ncnc5sc(CC(F)(F)F)cc35)C4)cc2o1 (single isomer, unassigned) [Compound 297]
128 nM | O=c1[nH]c2ccc(N[C@H]3CCC4(C3)CN(c3ncnc5sc(CC(F)(F)F)cc35)C4)cc2[nH]1 (single isomer, unassigned) [Compound 300]
123 nM | FC(F)(F)Cc1cc2c(N3CCC4(CCC(Nc5ccccc5)C4)C3)ncnc2s1 (single isomer, unassigned) [Compound 32]
118 nM | O=S(=O)(c1ccc(NC2CC3(CCN(c4ncnc5sc(CC(F)(F)F)cc45)C3)C2)cc1)N1CCOCC1 (single isomer, unassigned) [Compound 220]
115 nM | CNc1nc(N2CCC3(CC(NCc4ccccc4)C3)C2)c2cc(CC(F)(F)F)sc2n1 (single isomer, unassigned) [Compound 62]
108 nM | CN1CCC(c2cc(NC3CC4(CCN(c5ncnc6sc(CC(F)(F)F)cc56)C4)C3)ccc2C(=O)N2CCOCC2)CC1 (single isomer, unassigned) [Compound 233]
85.9 nM | O=c1[nH]c2ccc(NC3CC4(CCN(c5ncnc6sc(CC(F)(F)F)cc56)C4)C3)cc2o1 (single isomer, unassigned) [Compound 324]
84.6 nM | CNC(=O)c1ccc(NC2CC3(CCN(c4ncnc5sc(CC(F)(F)F)cc45)C3)C2)cc1F (single isomer, unassigned) [Compound 204]
70.4 nM | N#CCc1ccc(NC2CC3(CCN(c4ncnc5sc(CC(F)(F)F)cc45)C3)C2)cc1Cl (single isomer, unassigned) [Compound 210]
65.3 nM | N#CCc1ccc(NC2CC3(CCN(c4ncnc5sc(CC(F)(F)F)cc45)C3)C2)c(Cl)c1 (single isomer, unassigned) [Compound 209]
60.4 nM | CN(C)CCNC(=O)c1ccc(NC2CC3(CCN(c4ncnc5sc(CC(F)(F)F)cc45)C3)C2)cc1 (single isomer, unassigned) [Compound 74]
58.4 nM | O=C1Cc2ccc(N[C@H]3CCC4(C3)CN(c3ncnc5sc(CC(F)(F)F)cc35)C4)cc2N1 (single isomer, unassigned) [Compound 294]
55.2 nM | FC(F)(F)Cc1cc2c(N3CCC4(CC(Nc5ccc6cc[nH]c6c5)C4)C3)ncnc2s1 (single isomer, unassigned) [Compound 313]
39.6 nM | CNC(=O)c1ccc(NC2CC3(CCN(c4ncnc5sc(CC(F)(F)F)cc45)C3)C2)c(Cl)c1 (single isomer, unassigned) [Compound 68]
